According to patent US12016918B2, “Peptide-containing adjuvant compounds having peg spacers” (UNIVERSITEIT LEIDEN, priority 2017, dated 2024):
Non-standard residues stand in square brackets, D forms with d. *: point of attachment. O(CH2CH2O)3CH2C(O) = O=C(COCCOCCOCCO)*; AEEEA = NCCOCCOCCOCC(=O)O; Carbamoyl = NC(=O)*; Cy5 = Cy5 label

How the values were obtained:
Format in all cases: cell-based
human TLR2 = biological target: T1, human TLR2 (Homo sapiens, UniProt O60603); test: HEK293-TLR2 activation assay (IL-8 production); conditions: for activation of TLR2 HEK cells (human IL-8 production via TLR-2): HEK TLR-2 cells incubated with titrated amounts of compound, IL-8 in supernatant by ELISA, FIG. 2A/3A; for TLR2-mediated bio-activity compared to reference ligands: compared to compound 1 and 5 and chirally pure Pam3CSK4 (Pam-R), HEK TLR2 cells and human DC, FIG. 2
T1 construct: host or cells: HEK293
Description: (a) HEK TLR-2 cells were incubated with titrated amounts of test compounds or controls for 24 h;
The HEK-TLR2 reporter cell line and HEK293 cells stably transfected with human TLR2 were obtained from Invivogen, Toulouse, France. HEK-TLR2 cells were cultured in complete IMDM medium, supplemented with 500 μg/mL Geneticin. Test compounds were titrated in a flat-bottom 96-well plate (Corning, Amsterdam, The Netherlands) in complete IMDM medium to which 20 000 HEK-TLR2 cells per well were added. After 48 h of incubation at 37° C., the supernatant was taken from the wells for ELISA analysis (BioLegend, San Diego, CA) to determine the amount of IL-8 that was produced as a measure for TLR2-mediated activation.

[1] = system: human monocyte-derived dendritic cells; test: Activation of human dendritic cells (IL-12 cytokine secretion by ELISA); conditions: human DCs stimulated with titrated amounts of compound; IL-12 by ELISA; FIG. 2B/3B
Description: One representative from three independent experiments is shown (error bars represent SD);
DCs were stimulated with titrated amounts of test compounds or controls. Supernatants were harvested and analyzed for IL-12 cytokine secretion by ELISA as in FIG. 2B;

human moDC = test: Uptake by human moDC (confocal laser scanning microscopy); conditions: 1 μM, 15 min incubation; Cy5-labeled conjugate; endo-lysosomal compartments; FIG. 4A
Description: The cells were incubated for 15 min with compound 10 (1 μM). The uptake and localization of the compounds were analyzed with confocal laser scanning microscopy. The images are representative for multiple cells in at least 3 experiments; and […]

mouse D1-cells = test: Uptake by mouse D1-cells (confocal laser scanning microscopy); conditions: 1 μM, 15 min incubation; Cy5-labeled conjugate; endo-lysosomal compartments; FIG. 4B
Description: The cells were incubated for 15 min with compound 10 (1 μM). The uptake and localization of the compounds were analyzed with confocal laser scanning microscopy. The images are representative for multiple cells in at least 3 experiments.

T1 sequence (O60603 21-784): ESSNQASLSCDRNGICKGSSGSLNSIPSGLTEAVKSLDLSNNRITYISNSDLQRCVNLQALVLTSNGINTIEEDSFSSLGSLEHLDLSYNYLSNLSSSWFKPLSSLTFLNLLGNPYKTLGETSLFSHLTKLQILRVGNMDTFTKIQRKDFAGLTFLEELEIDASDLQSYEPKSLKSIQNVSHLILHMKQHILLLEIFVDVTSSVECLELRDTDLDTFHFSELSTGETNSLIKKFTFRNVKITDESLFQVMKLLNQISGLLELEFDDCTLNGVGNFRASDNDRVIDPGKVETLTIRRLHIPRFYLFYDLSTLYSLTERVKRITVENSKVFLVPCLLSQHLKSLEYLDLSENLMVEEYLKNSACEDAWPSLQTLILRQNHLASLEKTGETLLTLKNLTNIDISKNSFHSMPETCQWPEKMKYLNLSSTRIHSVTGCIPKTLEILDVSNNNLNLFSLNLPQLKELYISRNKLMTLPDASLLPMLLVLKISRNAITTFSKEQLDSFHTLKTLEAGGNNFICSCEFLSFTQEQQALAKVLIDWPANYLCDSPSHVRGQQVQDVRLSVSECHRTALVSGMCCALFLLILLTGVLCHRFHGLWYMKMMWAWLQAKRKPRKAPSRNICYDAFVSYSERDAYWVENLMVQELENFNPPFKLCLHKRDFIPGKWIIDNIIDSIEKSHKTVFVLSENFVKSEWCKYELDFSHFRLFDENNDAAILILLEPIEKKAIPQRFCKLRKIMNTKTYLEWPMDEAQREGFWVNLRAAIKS

activation of TLR2 HEK cells (human IL-8 production via TLR-2) (human TLR2)	TLR2-mediated bio-activity compared to reference ligands (human TLR2)	Molecule	activation of human monocyte-derived dendritic cells (IL-12 secretion) [1]	dendritic cell uptake, human (human moDC)	dendritic cell uptake, murine (mouse D1-cells)
excellent capacity to activate	improved	CCCCCCCCCCCCCCCC(=O)OCCSCC[C@H](NC(N)=O)C(=O)N[C@@H](CO)C(=O)OCCOCCOCCOCC(=O)O [Compound 6, (14S,17S)-14-(hydroxymethyl)-13,16,24-trioxo-17-ureido-3,6,9,12,23-pentaoxa-20-thia-15-azanonatriacontanoic acid]	excellent capacity to activate		
excellent capacity to activate	improved	CCCCCCCCCCCCCCCC(=O)OCCSCC[C@H](NC(N)=O)C(=O)N[C@@H](CO)C(=O)NCCOCCOCCOCC(=O)O [Compound 7, (14S,17 S)-14-(hydroxymethyl)-13,16,24-trioxo-17-ureido-3,6,9,23-tetraoxa-20-thia-12,15-diazanonatriacontanoic acid]	excellent capacity to activate		
intact bio-activity		NH2C(O)NH-Cys(EtOC(O)C15H31)-Ser(OH)—NH(CH2CH2O)3CH2C(O)NH-DEVSGLEQLESIINFEK(^Cy5)L-OH ({Carbamoyl-Cys(EtOC(O)C15H31)}-S[AEEEA]DEVSGLEQLESIINFEK(Cy5)L-OH) [Compound 11, Cy5 fluorophore-labeled conjugate from 28]	intact bio-activity		
intact bio-activity		NH2C(O)NH-Cys(EtOC(O)C15H31)-Ser(OH)—NH(CH2CH2O)3CH2C(O)NH-DEVSGLEQLESIINFEKL-OH ({Carbamoyl-Cys(EtOC(O)C15H31)}-S[AEEEA]DEVSGLEQLESIINFEKL-OH) [Compound 9]	intact bio-activity		
intact bio-activity		NH2C(O)NH-Cys(EtOC(O)C15H31)-Ser(OH)—O(CH2CH2O)3CH2C(O)NH-DEVSGLEQLESIINFEK(^Cy5)L-OH ({Carbamoyl-Cys(EtOC(O)C15H31)-Ser-O(CH2CH2O)3CH2C(O)}-DEVSGLEQLESIINFEK(Cy5)L-OH) [Compound 10, Cy5 fluorophore-labeled conjugate from 27]	intact bio-activity	efficient engulfment	efficient engulfment
intact bio-activity		NH2C(O)NH-Cys(EtOC(O)C15H31)-Ser(OH)—O(CH2CH2O)3CH2C(O)NH-DEVSGLEQLESIINFEKL-OH ({Carbamoyl-Cys(EtOC(O)C15H31)-Ser-O(CH2CH2O)3CH2C(O)}-DEVSGLEQLESIINFEKL-OH) [Compound 8]	intact bio-activity		
